The compounds below were run on HBV (assay: HBV inhibition assay in HepG2.2.15 cells (qPCR of extracellular HBV DNA)). Conditions: Hepatitis B virus, HepG2.2.15, 120 h, extracellular HBV DNA by qPCR, five days after compound treatment.
Type: cell-based, Hepatitis B virus
Text: HepG2.2.15 is a stably-transfected cell line containing the HBV genome. It is derived from the hepatoblastoma cell line Hep G2 (American Type Culture Collection, ATCC® HB-8065™) by the published procedures described in reference: MA Selles et al. Proc. Natl. Acad. Sci. USA 1987, 84, 1005-1009. The cell line was maintained in Dulbecco's modified Eagle's medium and nutrient mixture F-12 (DMEM/F-12, Gibco, Cat.#: 11320-033) supplemented with 10% fetal bovine serum (Gibco, Cat.#:10099-141), 100 U/mL penicillin, 100 μg/mL streptomycin (Gibco, Cat.#:15140-122), and 0.3 mg/mL of G418 Sulfate (Gibco, Cat.#: 10131-027).
HepG2.2.15 cells were seeded into 96-well plates at a density of 3×10^4 cells per well in culture media of 100 μL DMEM/F-12 supplemented with 2.5% fetal bovine serum, 100 U/mL penicillin, 100 μg/mL streptomycin and cultured overnight at 37° C. The test compounds were serially half-log diluted in DMSO, then diluted 100 times in culture media. 100 μL culture media containing diluted compounds were added into the plates to reach 0.5% final concentration of DMSO in every well. Five days after compound treatment, culture supernatant was collected for further analysis.
For quantitative PCR detection of extracellular HBV DNA, culture supernatant was processed by 500 μg/mL Proteinase K (Sigma, Cat.#:P2308) digestion at 50° C. for 1 hour. After heat inactivation of the enzyme at 95° C. for 15 minutes, the samples were subjected to HBV DNA quantification by qPCR. The effective compound concentration at which HBV replication was inhibited by 50% (EC50) was determined.

Question: Which EC50 does the source give for `C[C@H]1Cn2ncc(N3CC(c4ccccc4C(=O)O)CC3=O)c2CN1C(=O)Nc1cc(F)c(F)c(F)c1` (stereo partly drawn) [Example 7, 2-[1-[(6S)-6-methyl-5-[(3,4,5-trifluorophenyl)carbamoyl]-6,7-dihydro-4H-pyrazolo[1,5-a]pyrazin-3-yl]-5-oxo-pyrrolidin-3-yl]benzoic acid] here?
Answer: Its EC50 is 22 nM.

Question: With `C[C@H]1Cn2ncc(N3CC(c4ncccc4C(=O)O)CC3=O)c2CN1C(=O)Nc1cc(F)c(F)c(F)c1` (stereo partly drawn) [Example 18, 2-[1-[(6S)-6-methyl-5-[(3,4,5-trifluorophenyl)carbamoyl]-6,7-dihydro-4H-pyrazolo[1,5-a]pyrazin-3-yl]-5-oxo-pyrrolidin-3-yl]pyridine-3-carboxylic acid] as the compound, how does the EC50 read?
Answer: Its EC50 is 102 nM.

Question: Which EC50 does the source give for `C[C@H]1Cn2ncc(N3CC4COCC(C3=O)N4CC(=O)O)c2CN1C(=O)Nc1cc(F)c(F)c(F)c1` (stereo partly drawn) [Example 13, 2-[7-[(6S)-6-methyl-5-[(3,4,5-trifluorophenyl)carbamoyl]-6,7-dihydro-4H-pyrazolo[1,5-a]pyrazin-3-yl]-6-oxo-3-oxa-7,9-diazabicyclo[3.3.1]nonan-9-yl]acetic acid] here?
Answer: Its EC50 is 99 nM.

Question: Which EC50 does the source give for `C[C@H]1Cn2ncc(N3CC(c4ccc(F)cc4C(=O)O)CC3=O)c2CN1C(=O)Nc1cc(F)c(F)c(F)c1` (stereo partly drawn) [Example 15, 5-Fluoro-2-[1-[(6S)-6-methyl-5-[(3,4,5-trifluorophenyl)carbamoyl]-6,7-dihydro-4H-pyrazolo[1,5-a]pyrazin-3-yl]-5-oxo-pyrrolidin-3-yl]benzoic acid] here?
Answer: The EC50 was 57 nM.

Question: How did the EC50 turn out when `C[C@H]1Cn2ncc(N3CC(N4CCC[C@H]4C(=O)O)CC3=O)c2CN1C(=O)Nc1cc(F)c(F)c(F)c1` (stereo partly drawn) [Example 1, (2S)-1-[1-[(6S)-6-methyl-5-[(3,4,5-trifluorophenyl)carbamoyl]-6,7-dihydro-4H-pyrazolo[1,5-a]pyrazin-3-yl]-5-oxo-pyrrolidin-3-yl]pyrrolidine-2-carboxylic acid] was run?
Answer: The EC50 was 126 nM.

Question: For `C[C@H]1Cn2ncc(N3C(=O)CC(N4CCC[C@H]4C(=O)O)[C@@H]3C)c2CN1C(=O)Nc1cc(F)c(F)c(F)c1` (stereo partly drawn) [Example 2, (2S)-1-[(2S)-2-methyl-1-[(6S)-6-methyl-5-[(3,4,5-trifluorophenyl)carbamoyl]-6,7-dihydro-4H-pyrazolo[1,5-a]pyrazin-3-yl]-5-oxo-pyrrolidin-3-yl]pyrrolidine-2-carboxylic acid], which EC50 is on record?
Answer: The EC50 was 98 nM.

Question: For `C[C@H]1[C@H](C)n2ncc(N3CC(N4CCC[C@H]4C(=O)O)CC3=O)c2CN1C(=O)Nc1cc(F)c(F)c(F)c1` (stereo partly drawn) [Example 6-1, (2S)-1-[1-[(6S,7S)-6,7-dimethyl-5-[(3,4,5-trifluorophenyl)carbamoyl]-6,7-dihydro-4H-pyrazolo[1,5-a]pyrazin-3-yl]-5-oxo-pyrrolidin-3-yl]pyrrolidine-2-carboxylic acid], which EC50 is on record?
Answer: Its EC50 is 112 nM.

Question: Which EC50 does the source give for `C[C@H]1Cn2ncc(N3CC(N(C)CC(=O)O)CC3=O)c2CN1C(=O)Nc1cc(F)c(F)c(F)c1` (stereo partly drawn) [Example 3, 2-[Methyl-[1-[(6S)-6-methyl-5-[(3,4,5-trifluorophenyl)carbamoyl]-6,7-dihydro-4H-pyrazolo[1,5-a]pyrazin-3-yl]-5-oxo-pyrrolidin-3-yl]amino]acetic acid] here?
Answer: Its EC50 is 139 nM.

Question: For `C[C@H]1Cn2ncc(N3CC(N4CCC[C@@H]4C(=O)O)CC3=O)c2CN1C(=O)Nc1cc(F)c(F)c(F)c1` (stereo partly drawn) [Example 9, (2R)-1-[1-[(6S)-6-methyl-5-[(3,4,5-trifluorophenyl)carbamoyl]-6,7-dihydro-4H-pyrazolo[1,5-a]pyrazin-3-yl]-5-oxo-pyrrolidin-3-yl]pyrrolidine-2-carboxylic acid], which EC50 is on record?
Answer: The EC50 was 124 nM.

Question: Which EC50 does the source give for `C[C@H]1Cn2ncc(N3CC(c4cccc(C(=O)O)c4)CC3=O)c2CN1C(=O)Nc1cc(F)c(F)c(F)c1` (stereo partly drawn) [Example 8, 3-[1-[(6S)-6-methyl-5-[(3,4,5-trifluorophenyl)carbamoyl]-6,7-dihydro-4H-pyrazolo[1,5-a]pyrazin-3-yl]-5-oxo-pyrrolidin-3-yl]benzoic acid] here?
Answer: Its EC50 is 89 nM.

Question: How did the EC50 turn out when `C[C@H]1Cn2ncc(N3CC(N4CCC(C(=O)O)C4)CC3=O)c2CN1C(=O)Nc1cc(F)c(F)c(F)c1` (stereo partly drawn) [Example 5, 1-[1-[(6S)-6-methyl-5-[(3,4,5-trifluorophenyl)carbamoyl]-6,7-dihydro-4H-pyrazolo[1,5-a]pyrazin-3-yl]-5-oxo-pyrrolidin-3-yl]pyrrolidine-3-carboxylic acid] was run?
Answer: The EC50 was 240 nM.

Question: `C[C@H]1Cn2ncc(N3C(=O)CC(N4CCC[C@@H]4C(=O)O)[C@@H]3C)c2CN1C(=O)Nc1cc(F)c(F)c(F)c1` (stereo partly drawn) [Example 4, (2R)-1-[(2S)-2-methyl-1-[(6S)-6-methyl-5-[(3,4,5-trifluorophenyl)carbamoyl]-6,7-dihydro-4H-pyrazolo[1,5-a]pyrazin-3-yl]-5-oxo-pyrrolidin-3-yl]pyrrolidine-2-carboxylic acid] was tested. Which EC50 did it give?
Answer: Its EC50 is 105 nM.

Question: With `C[C@H]1Cn2ncc(N3CC(Nc4ccccc4C(=O)O)CC3=O)c2CN1C(=O)Nc1cc(F)c(F)c(F)c1` (stereo partly drawn) [Example 12, 2-[[1-[(6S)-6-methyl-5-[(3,4,5-trifluorophenyl)carbamoyl]-6,7-dihydro-4H-pyrazolo[1,5-a]pyrazin-3-yl]-5-oxo-pyrrolidin-3-yl]amino]benzoic acid] as the compound, how does the EC50 read?
Answer: The EC50 was 288 nM.

Question: `C[C@H]1Cn2ncc(N3CC(c4cc(F)ccc4C(=O)O)CC3=O)c2CN1C(=O)Nc1cc(F)c(F)c(F)c1` (stereo partly drawn) [Example 14, 4-Fluoro-2-[1-[(6S)-6-methyl-5-[(3,4,5-trifluorophenyl)carbamoyl]-6,7-dihydro-4H-pyrazolo[1,5-a]pyrazin-3-yl]-5-oxo-pyrrolidin-3-yl]benzoic acid] was tested. Which EC50 did it give?
Answer: The EC50 was 30 nM.

Question: How did the EC50 turn out when `C[C@H]1Cn2ncc(N3CC(c4ccc(C(=O)O)cc4)CC3=O)c2CN1C(=O)Nc1cc(F)c(F)c(F)c1` (stereo partly drawn) [Example 16, 4-[1-[(6S)-6-methyl-5-[(3,4,5-trifluorophenyl)carbamoyl]-6,7-dihydro-4H-pyrazolo[1,5-a]pyrazin-3-yl]-5-oxo-pyrrolidin-3-yl]benzoic acid] was run?
Answer: Its EC50 is 228 nM.

Same assay, conditions: extracellular HBV DNA by qPCR, five days after compound treatment

Question: How did the EC50 turn out when `C[C@H]1Cn2ncc(N3CC(c4cccc(F)c4C(=O)O)CC3=O)c2CN1C(=O)Nc1cc(F)c(F)c(F)c1` (single isomer, unassigned) [Example 11-2] was run?
Answer: Its EC50 is 77 nM.

Question: With `C[C@H]1Cn2ncc(N3CC(c4ccccc4C(=O)O)CC3=O)c2CN1C(=O)Nc1cc(F)c(F)c(F)c1` (single isomer, unassigned) [Example 7-1] as the compound, how does the EC50 read?
Answer: Its EC50 is 34 nM.

Question: Which EC50 does the source give for `C[C@H]1[C@H](C)n2ncc(N3CC(N4CCC[C@H]4C(=O)O)CC3=O)c2CN1C(=O)Nc1cc(F)c(F)c(F)c1` (stereo partly drawn) [Example 6-2, (2S)-1-[1-[(6S,7S)-6,7-dimethyl-5-[(3,4,5-trifluorophenyl)carbamoyl]-6,7-dihydro-4H-pyrazolo[1,5-a]pyrazin-3-yl]-5-oxo-pyrrolidin-3-yl]pyrrolidine-2-carboxylic acid] here?
Answer: The EC50 was 99 nM.

Question: With `C[C@H]1Cn2ncc(N3CC(c4c(F)cccc4C(=O)O)CC3=O)c2CN1C(=O)Nc1cc(F)c(F)c(F)c1` (single isomer, unassigned) [Example 10-1] as the compound, how does the EC50 read?
Answer: Its EC50 is 106 nM.

Question: For `C[C@H]1Cn2ncc(N3CC(c4cccc(F)c4C(=O)O)CC3=O)c2CN1C(=O)Nc1cc(F)c(F)c(F)c1` (single isomer, unassigned) [Example 11-1], which EC50 is on record?
Answer: The EC50 was 312 nM.

Question: How did the EC50 turn out when `C[C@H]1Cn2ncc(N3CC(c4c(F)cccc4C(=O)O)CC3=O)c2CN1C(=O)Nc1cc(F)c(F)c(F)c1` (single isomer, unassigned) [Example 10-2] was run?
Answer: The EC50 was 17 nM.

Question: For `C[C@H]1Cn2ncc(N3CC(c4ccccc4C(=O)O)CC3=O)c2CN1C(=O)Nc1cc(F)c(F)c(F)c1` (single isomer, unassigned) [Example 7-2], which EC50 is on record?
Answer: Its EC50 is 14 nM.
